Reference: the METLIN SMRT retention time set (Domingo-Almenara et al. 2019)

Assay: gradient 5% acetonitrile 3 min, to 50% in 2 min, to 85% in 15 min, held 3 min, 100 µL/min
Settings: column: Zorbax Extend-C18 2.1 x 50 mm; eluents: water / acetonitrile, 0.1% formic acid
In short: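 Pure standards were run in mixtures of ~100 molecules by HPLC coupled to a quadrupole time-of-flight mass spectrometer. The column was a Zorbax Extend-C18 (2.1 × 50 mm, 1.8 μm) at 100 μL/min, with water and acetonitrile each containing 0.1% formic acid, in positive and negative ionization mode. Dead and dwell volumes were 40 μL and 900 μL. Retention time was taken from computationally picked adduct peaks, each manually inspected, with data collected over 3 months.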

O=C(NCC1CCCCC1)c1ccc2c(c1)nc1n2CCN(C2CCCCC2)C1=O
RP-LC retention time: 872 s

CCc1cc(C(=O)Nc2cccc(F)c2)nc2ccnn12
RP-LC retention time: 998 s

O=C(NCC(c1cccnc1)c1c[nH]c2ccccc12)Nc1ccc(Br)cc1 (centres undefined)
RP-LC retention time: 724 s

Cn1cnc(C(=O)N2CC(F)(F)C[C@H]2c2nc(C3CC3)no2)c1
RP-LC retention time: 667 s

O=C(Nc1ccccc1)[C@@H]1OCCN(C2CC2)[C@H]1c1ccccc1
RP-LC retention time: 668 s

COc1cccc(N2CCN(C(=O)c3cc4c(=O)n(C)ccc4n3C)CC2)c1
RP-LC retention time: 700 s

Cc1ccc(C(=O)Nc2cccn3nc(C(C)C)nc23)cc1
RP-LC retention time: 950 s

Cc1nc(N(C)C(=O)Cc2ccc(-c3ccccn3)cc2)sc1S(N)(=O)=O
RP-LC retention time: 699 s

CC(Oc1ccccc1)c1nc(-c2ccc3c(c2)ncn3CCC(=O)N2CCCC2)no1 (centres undefined)
RP-LC retention time: 751 s

CCOC(=O)c1noc2ncnc(NCCc3ccccc3)c12
RP-LC retention time: 936 s

CCc1nc2sc(C(C)C)nn2c1S(=O)(=O)N1CCCC1
RP-LC retention time: 945 s

COc1ccc(CNC(=O)Nc2cc3c(cc2N2CCOCC2)n(C)c(=O)n3C)cc1
RP-LC retention time: 694 s

CCc1ccc(NC(=O)NC2CCN(c3ccc(F)c(C)c3)C2=O)cc1 (centres undefined)
RP-LC retention time: 905 s

CN1CCN(S(=O)(=O)c2cccc(C#N)c2)CC1c1ccc(F)cc1 (centres undefined)
RP-LC retention time: 579 s

O=C(Nc1ccc(Cn2cncn2)cc1)c1ccccn1
RP-LC retention time: 654 s

O=C(Cn1cnc(-c2ccc(Cl)cc2)cc1=O)NCc1ccccc1OC(F)(F)F
RP-LC retention time: 910 s

CCN1C(=O)c2cccnc2Sc2cc(CNC(=O)Cc3ccc(OC)cc3)ccc21
RP-LC retention time: 742 s

COC(=O)c1cccc(N2C=C(C(=O)N3CCCC3)S(=O)(=O)c3ccc(Cl)cc32)c1
RP-LC retention time: 831 s

O=C(Cc1ccc(NC(=O)C2COc3ccccc3O2)cc1)NCC(F)(F)F (centres undefined)
RP-LC retention time: 576 s

CSc1nnc(-c2nn(C)c3c2CN(C(=O)c2ccc(F)c(F)c2)CC3)n1C
RP-LC retention time: 720 s

CCCCCCNC(=O)C1CCCN(c2ncc(-c3ccccc3)cn2)C1 (centres undefined)
RP-LC retention time: 1150 s

Cc1ccccc1-c1noc(CCn2nc(-c3ccccc3)ccc2=O)n1
RP-LC retention time: 1000 s

CC(C)Cn1nc2c(S(=O)(=O)N3CCN(c4ccc(F)cc4)CC3)cccn2c1=O
RP-LC retention time: 914 s

CCn1cc2c3c(cccc31)CN(C(=O)Nc1cc(OC)c(OC)c(OC)c1)CC2
RP-LC retention time: 742 s

Cc1ccc(-c2noc(Cn3ccn(Cc4ccc(Cl)cc4)c(=O)c3=O)n2)cc1
RP-LC retention time: 951 s

Cc1oc(C2CCN(C(=O)Nc3ccc4c(c3)OCCO4)CC2)nc1C(=O)N(C)C
RP-LC retention time: 675 s

CCc1ccccc1NC(=O)Cn1c(N)nc(COC)cc1=O
RP-LC retention time: 598 s

Cc1cc(=O)n(CC(=O)Nc2cccc(Br)c2)c(N2CCOCC2)n1
RP-LC retention time: 705 s

Cc1ccc(C)c(NC(=O)CCc2cccc3[nH]ccc23)c1
RP-LC retention time: 879 s

COc1ccc(NC(=O)N2CCC3(C2)C(=O)Nc2ccc(OC)cc23)cc1 (centres undefined)
RP-LC retention time: 697 s

COc1ccc(Cc2nnc(NC(=O)c3cnc4ccccc4n3)o2)cc1
RP-LC retention time: 722 s

CCOC(=O)CNC(=O)N1CCc2c(c(C(=O)N3CCCC3)nn2C)C1
RP-LC retention time: 637 s

CCCc1ccc(S(=O)(=O)Nc2ccc(N3CCCN(C)CC3)cc2C(=O)O)cc1
RP-LC retention time: 676 s

COc1cccc(-c2csc(Nc3ccc(C)cn3)n2)c1
RP-LC retention time: 902 s

CC(C)COc1nc2c(c(=O)n(C)c(=O)n2C)n1C
RP-LC retention time: 865 s

O=C(Cn1c(=O)c2cccn2c2ccc(F)cc21)NCCCN1CCCCCC1
RP-LC retention time: 627 s

CCOC(=O)c1c(N)n(Cc2cccc(OC)c2)c2nc3ccccc3nc12
RP-LC retention time: 750 s

CCC(=O)NCCc1csc(C2CCCN(C(=O)C(C)(C)C)C2)n1 (centres undefined)
RP-LC retention time: 685 s

Cc1ccc(NC(=O)CN2C(=O)CC(C)S(=O)(=O)c3ccccc32)cc1Cl (centres undefined)
RP-LC retention time: 894 s

COCc1noc([C@@H]2CN(Cc3ccc(Br)o3)C[C@H]2C(N)=O)n1
RP-LC retention time: 565 s

C[C@H]1CN(C(=O)NC2CCCCC2)C[C@@H]1c1nc(-c2cccnc2)no1
RP-LC retention time: 784 s

CCOC(=O)N1CCN(S(=O)(=O)c2cc(N3C(=O)CCS3(=O)=O)ccc2C)CC1
RP-LC retention time: 729 s

CCOC(=O)c1cnc2c(C)c(Cl)ccc2c1NCCN(C)C
RP-LC retention time: 562 s

CCn1cc(CCNC(=O)c2sccc2C)c2cccnc21
RP-LC retention time: 705 s

CCOC(=O)C1CCCN(C(=O)Cc2cc(-c3ccc(F)cc3)on2)C1 (centres undefined)
RP-LC retention time: 820 s

Cc1cccc(-n2ncc3c(N4CCN(CCO)CC4)ncnc32)c1
RP-LC retention time: 622 s

O=C(NCc1cccnc1)c1ccc(CN2CCN(Cc3ccc(F)cc3)C(=O)C2=O)cc1
RP-LC retention time: 597 s

COc1cccc(N2CC(C(=O)Nc3nnc(SCc4ccccc4)s3)CC2=O)c1 (centres undefined)
RP-LC retention time: 820 s

CC(C(=O)NCCN1CCN(C)CC1)n1c2ccccc2c2cnn(C)c(=O)c21 (centres undefined)
RP-LC retention time: 572 s

CCC(=O)N1CCCN(C2=NS(=O)(=O)C(c3ccccc3)=C2C)CC1
RP-LC retention time: 694 s

O=C1CCCCC(Cc2ccccc2)(C(=O)N2CCc3ccccc3C2)N1 (centres undefined)
RP-LC retention time: 836 s

COc1ccc(NC(=O)CN2CCc3[nH]c4c(C)ccc(F)c4c(=O)c3C2)cc1OC
RP-LC retention time: 1050 s

CCSc1nnc(-c2nn(C)c3c2CN(S(=O)(=O)c2cccc(F)c2)CC3)n1CC
RP-LC retention time: 922 s

O=C(CN1CCN(Cc2cccc(Cl)c2)C1=O)N1CCN(c2ccccc2)CC1
RP-LC retention time: 885 s

COc1ccc(-n2c(=O)n(C)c(=O)c3cc(C(=O)Nc4ccccc4C)cnc32)cc1
RP-LC retention time: 849 s

CC1CCN(S(=O)(=O)c2ccc(C(=O)Nc3nc4c(s3)CCc3ccccc3-4)cc2)CC1
RP-LC retention time: 1290 s

N#CC1CC(c2ccccc2)Nc2cc(Cl)ccc2N1 (centres undefined)
RP-LC retention time: 912 s

O=C(c1ccccc1Br)N1CCc2nc[nH]c2C1
RP-LC retention time: 563 s

COc1ccccc1NC(=O)Cn1c(=O)n(-c2ccc(F)cc2)c(=O)c2c1cc(C)n2C
RP-LC retention time: 833 s

COc1ccc(NC(=O)Cn2c(C(C)C)nc3c(c2=O)CN(Cc2ccccc2)CC3)cc1
RP-LC retention time: 685 s

CCCNc1cc(N2CCC(CCC(=O)NCc3ccccc3F)CC2)ncn1
RP-LC retention time: 680 s

O=C(Cn1c(=O)oc2ccccc21)Nc1nc(-c2ccc(Cl)cc2)cs1
RP-LC retention time: 1020 s

CCOC(=O)Oc1ccc2c(=O)c(Oc3cccc(OC)c3)coc2c1
RP-LC retention time: 928 s

COC(=O)Nc1nc(CC(=O)Nc2ccc(OC(F)(F)F)cc2)cs1
RP-LC retention time: 766 s

Cc1ccc2c(c1)N(S(C)(=O)=O)CCC(C(=O)Nc1ccc(F)c(Cl)c1)O2 (centres undefined)
RP-LC retention time: 998 s

COc1ccc(S(=O)(=O)N2CCc3nn(CC4CC4)c(=O)n3CC2)cc1Cl
RP-LC retention time: 786 s

CCOc1ccc(-c2nnc(SCC(N)=O)o2)cc1
RP-LC retention time: 682 s

COc1ccc(/C=C/c2cc(O)cc(OC3OC(CO)C(O)C(O)C3O)c2)cc1O (centres undefined)
RP-LC retention time: 612 s

O=C(c1ccco1)N1CCc2c(c(CO)nn2Cc2ccccc2)C1
RP-LC retention time: 657 s

O=C(Nc1ccccc1)C1CCCN(c2ccc3cc(S(=O)(=O)N4CCCC4)ccc3n2)C1 (centres undefined)
RP-LC retention time: 773 s

Cc1nc2nc(-c3ccccc3)nn2c(C)c1CC(=O)N(CCO)Cc1ccccc1
RP-LC retention time: 740 s

CCOCCc1c(O)nc(SC)[nH]c1=O
RP-LC retention time: 650 s

Cc1ccccc1-c1nc2cnccn2c1NCCC(=O)NCc1ccccc1F
RP-LC retention time: 660 s

COc1ccc(OC)c(NC(=O)Cc2csc3nc(-c4ccc(C)c(C)c4)cn23)c1
RP-LC retention time: 772 s

CCC(C)NC(=O)c1cc(C)n(C)n1 (centres undefined)
RP-LC retention time: 660 s

Cc1ccc2nc(CN3CCN(C(=O)NCCc4ccccc4)CC3)oc2c1
RP-LC retention time: 677 s

CCc1ccc(Nc2c(C(=O)N3CCCC(C)C3)cnc3nc(C)ccc23)cc1 (centres undefined)
RP-LC retention time: 702 s

COc1cc(Cl)ccc1-c1nc(-c2ccc3c(c2)ncn3CCC(=O)N2CCCC2)no1
RP-LC retention time: 786 s

Cc1cn(C)c(CC(=O)NCc2ccc3c(c2)OCO3)c1C(=O)O
RP-LC retention time: 687 s

COc1ccc(-n2c(=O)c3sccc3n(Cc3nc(-c4ccc(F)cc4)no3)c2=O)cc1
RP-LC retention time: 964 s

Cc1cc(C)cc(NC(=O)Cn2nc(N3CCSCC3)c3ccccc3c2=O)c1
RP-LC retention time: 1020 s

CCc1nc2cc(-c3noc(CNC(=O)c4ccccc4)n3)ccc2o1
RP-LC retention time: 821 s

O=C(CCc1nc(CSc2nc3ccccc3s2)no1)Nc1nc(-c2ccccc2)cs1
RP-LC retention time: 1090 s

O=C(Cc1ccccc1Br)N1CCN(c2cc(-c3ccc(Cl)cc3)[nH]n2)CC1
RP-LC retention time: 939 s

O=C(Cn1cc(-c2ccccc2)c(N2CCOCC2)n1)N1CCN(c2ccccc2F)CC1
RP-LC retention time: 978 s

O=C(Cn1c(Cc2ccc(Cl)cc2)nc2ccccc21)N1CCCCCC1
RP-LC retention time: 739 s

CCN(Cc1ccccc1)S(=O)(=O)c1cc(-c2nnc(C3CCC3)o2)co1
RP-LC retention time: 913 s

CC1=C(c2ccc(F)cc2)S(=O)(=O)N=C1N1CCCN(C(=O)c2ccccc2F)CC1
RP-LC retention time: 817 s

Cc1ccc(CCNC(=O)C2CCN(S(=O)(=O)c3ccc4c(c3)CCCC(=O)N4)CC2)cc1
RP-LC retention time: 781 s
